Assay results from US20090099094A1, “Use of Somatostatin Agonists to Treat Medullary Thyroid Carcinoma” (priority 2007, published 2009).

Assays:
SSTR5 = SSTR5 (Homo sapiens, UniProt P35346); test: SSTR receptor binding affinity (Ki), SSTR5; settings: read-out: SSTR Specificity Ki SSTR5
SSTR2 = SSTR2 (Homo sapiens, UniProt P30874); test: SSTR receptor binding affinity (Ki), SSTR2; settings: read-out: SSTR Specificity Ki SSTR2
SSTR1 = SSTR1 (Homo sapiens, UniProt P30872); test: SSTR receptor binding affinity (Ki), SSTR1; settings: read-out: SSTR Specificity Ki SSTR1
[1] = test system: medullary thyroid carcinoma primary cultures; test: Calcitonin secretion by MTC primary cultures (IRMA); type: cell-based, human; settings: 10^−8 M, six hours
Description: Primary cultured cells from 18 selected MTC samples were incubated in ninety six well plates for six hours with each SSTR agonist at 10^−8 M. Control cells were treated with vehicle solution. Calcitonin levels in the conditioned medium were measured by immunoradiometric assay (IRMA) among eight replicates in the conditioned medium from treated and untreated (control) primary cultured cells. […] Data are expressed as the mean±SE percent hormone secretion inhibition vs. untreated control cells. *P<0.05 and **P<0.01 vs. control.
(§1) Tissue samples were surgically removed in accordance with the guidelines of the local comnmittees on human research. Thyroid tissue samples were obtained under sterile conditions and immediately minced in RPMI 1640 tissue culture medium. Tissues were incubated with 0.25% trypsin overnight at 4° C. and then dissociated using 0.35% collagenase (Sigma, Milano, ITALY) and 1% trypsin at 37° C. for sixty minutes. Cell suspensions were filtered through double layers of gaus(e and washed twice with serum-free F-12 Ham's Nutrient Modified Medium (F-12; Euroclone Ltd, Wetherby, UNITED KINGDOM). Tumor cells were re-suspended in F-12 with 10% fetal bovine serum and antibiotics, seeded in ninety-six well culture plates (˜2×10^4 cells/well) and incubated at 37° C. in a humidified atmosphere of 5% CO2 and 95% air according to known procedures (Zatelli, M. C. et al., Endocrinology, 2005, 146:2692-8). Approximately twenty-four hours later, the prepared cells were treated with the selected somatostatin agonist and were monitored for hormone secretion and overall viability. Informed consent of the patients was obtained for disclosing clinical investigation and performing the in vitro study.
Calcitonin levels were measured in a conditioned medium from treated and untreated primary cultured cells with the calcitonin-U.S.-IRMA® kit (Biosource Europe, Nivelles, BELGIUM) after a six hour treatment with […] of the selected somatostatin analogs. The intra- and inter-assay variation coefficients were 1.9-2.7% and 1.9-3.3%, respectively. The detection limit was 0.8 pg/ml. Hormone assays were performed in duplicate of conditioned medium from treated cells. Results were obtained by determining the mean value among eight replicates.
In order to investigate the effects of somatostatin analogs on hormone secretion, calcitonin and CgA levels were measured in conditioned media collected from primary cultures derived from the selected eighteen medullary thyroid carcinoma treated with or without each somatostatin analog at 10^−8M for six hours.
According to this criterion, […] as “responders” (group A: primary cultures #3, #5, #6, #7, #11, #12, #13, #14, #15, #16) and nine as “non responders” (group B: primary cultures #1, #2, #4, #8, #9, #10, #17, #18).

[2] = test system: medullary thyroid carcinoma primary cultures; test: Cell viability of MTC primary cultures (MTT); type: cell-based, human; settings: 10^−8 M, forty-eight hours
Description: Primary cultured cells from 18 selected MTC samples were incubated in ninety six well plates for forty eight hours with each SSTR agonist at 10^−8 M. Control cells were treated with vehicle solution. Cell viability was measured by a colorimetric method among eight replicates from treated and untreated (control) primary cultured cells. […] Data are expressed as the mean±SE percent cell viability reduction vs. untreated control cells. *P<0.05, and **P<0.01 vs. control.
as §1
The effects of the tested somatostatin analogs on medullary thyroid carcinoma primary culture cell viability were assessed with a Cell Proliferation Kit I MTT® (Roche Diagnostics GmbH, Mannheim, GERMANY) which employs a colorimetric method for determining the number of viable cells in proliferation assays. Primary cultured cells were plated in ninety-six multiwell plates (2×10^4 cells/well) and incubated for forty-eight hours in a medium supplemented with 10% fetal bovine serum in the presence or absence of each somatostatin analog at 10^−8M. Treatments were renewed after the first twenty-four hours of incubation.
In order to investigate the effects of somatostatin analogs on medullary thyroid carcinoma cell viability, an MTT assay was performed in primary cultures derived from the eighteen selected medullary thyroid carcinoma samples, treated with or without each somatostatin analog at […] for forty-eight hours. Percent cell viability reduction compared to a control in each primary culture under treatment with each somatostatin analog is reported in Table 6.

SSTR3 = SSTR3 (Homo sapiens, UniProt P32745); test: SSTR receptor binding affinity (Ki), SSTR3; settings: read-out: SSTR Specificity Ki SSTR3
[3] = MTC primary culture #1 (non responder)
[4] = MTC primary culture #2 (non responder)
[5] = MTC primary culture #3 (responder)
[6] = MTC primary culture #4 (non responder)
[7] = MTC primary culture #5 (responder)
[8] = MTC primary culture #6 (responder)
[9] = MTC primary culture #7 (responder)
[10] = MTC primary culture #8 (non responder)
[11] = MTC primary culture #9 (non responder)
[12] = MTC primary culture #10 (non responder)
[13] = MTC primary culture #11 (responder)
[14] = MTC primary culture #12 (responder)
[15] = MTC primary culture #13 (responder)
[16] = MTC primary culture #14 (responder)
[17] = MTC primary culture #15 (responder)
[18] = MTC primary culture #16 (responder)
[19] = MTC primary culture #17 (non responder)
[20] = MTC primary culture #18 (non responder)
[21] = group B (lanreotide non-responsive) mean

Sequence of SSTR3 (P32745 whole entry): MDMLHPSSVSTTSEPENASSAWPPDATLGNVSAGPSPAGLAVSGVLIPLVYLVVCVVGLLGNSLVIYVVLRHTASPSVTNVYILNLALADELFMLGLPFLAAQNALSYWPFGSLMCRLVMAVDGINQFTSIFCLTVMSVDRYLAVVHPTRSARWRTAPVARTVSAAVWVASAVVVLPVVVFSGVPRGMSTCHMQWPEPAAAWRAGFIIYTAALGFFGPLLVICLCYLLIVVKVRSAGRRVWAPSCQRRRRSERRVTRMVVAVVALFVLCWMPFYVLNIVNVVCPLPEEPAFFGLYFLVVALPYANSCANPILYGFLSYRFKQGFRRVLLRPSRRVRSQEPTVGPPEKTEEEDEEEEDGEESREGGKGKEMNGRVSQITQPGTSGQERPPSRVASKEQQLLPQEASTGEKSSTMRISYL
Sequence of SSTR2 (P30874 whole entry): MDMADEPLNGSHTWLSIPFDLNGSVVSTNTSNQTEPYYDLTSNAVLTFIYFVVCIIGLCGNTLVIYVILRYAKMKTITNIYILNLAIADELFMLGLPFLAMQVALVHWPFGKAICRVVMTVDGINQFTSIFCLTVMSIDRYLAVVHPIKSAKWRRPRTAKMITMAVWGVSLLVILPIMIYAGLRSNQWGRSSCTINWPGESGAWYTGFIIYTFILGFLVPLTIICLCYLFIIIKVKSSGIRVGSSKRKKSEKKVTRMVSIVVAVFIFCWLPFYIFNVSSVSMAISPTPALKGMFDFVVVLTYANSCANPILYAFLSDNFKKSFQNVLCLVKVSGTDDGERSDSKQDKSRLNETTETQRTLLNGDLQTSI
Sequence of SSTR5 (P35346 whole entry): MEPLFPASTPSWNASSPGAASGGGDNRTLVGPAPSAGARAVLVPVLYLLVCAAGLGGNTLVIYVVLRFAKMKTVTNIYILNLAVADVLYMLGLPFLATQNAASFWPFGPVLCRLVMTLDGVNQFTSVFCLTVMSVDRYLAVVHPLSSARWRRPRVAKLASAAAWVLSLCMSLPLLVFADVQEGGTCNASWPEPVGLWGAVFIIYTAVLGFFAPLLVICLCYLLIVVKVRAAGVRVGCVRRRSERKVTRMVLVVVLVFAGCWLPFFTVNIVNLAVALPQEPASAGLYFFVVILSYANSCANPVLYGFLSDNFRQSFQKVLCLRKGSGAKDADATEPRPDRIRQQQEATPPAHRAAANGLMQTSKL
Sequence of SSTR1 (P30872 whole entry): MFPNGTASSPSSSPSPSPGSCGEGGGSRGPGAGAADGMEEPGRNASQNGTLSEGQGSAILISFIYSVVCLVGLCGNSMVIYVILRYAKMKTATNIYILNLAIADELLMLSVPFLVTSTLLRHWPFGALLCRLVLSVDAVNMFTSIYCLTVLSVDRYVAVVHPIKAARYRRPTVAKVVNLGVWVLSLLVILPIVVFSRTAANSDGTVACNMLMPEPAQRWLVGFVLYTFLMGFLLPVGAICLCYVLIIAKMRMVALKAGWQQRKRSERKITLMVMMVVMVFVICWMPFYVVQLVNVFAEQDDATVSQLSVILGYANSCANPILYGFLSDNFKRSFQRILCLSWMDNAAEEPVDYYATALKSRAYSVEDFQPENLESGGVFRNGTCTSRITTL

## C[C@@H](O)[C@H](NC(=O)[C@H](Cc1ccccc1)NC(=O)[C@@H](NC(=O)[C@H](CCCCN)NC(=O)[C@@H](Cc1c[nH]c2ccccc12)NC(=O)[C@H](Cc1c[nH]c2ccccc12)NC(=O)[C@H](Cc1ccccc1)NC(=O)[C@H](N)Cc1ccccc1)[C@@H](C)O)C(N)=O [Cmpd #3, D-Phe-Phe-Trp-D-Trp-Lys-Thr-Phe-Thr-NH2]
SSTR5
  Ki: 0.0024 µM
SSTR2
  Ki: 0.166 µM
SSTR1
  Ki: 1.15 µM
[1]; [3]
  % CT secretion inhibition vs. control: −16.6%
[1]; [4]
  % CT secretion inhibition vs. control: 18.2%
[1]; [5]
  % CT secretion inhibition vs. control: −36.5%
[1]; [6]
  % CT secretion inhibition vs. control: 5.3%
[1]; [7]
  % CT secretion inhibition vs. control: −17.5%
[1]; [8]
  % CT secretion inhibition vs. control: −25.8%
[1]; [9]
  % CT secretion inhibition vs. control: −34.6%
[1]; [10]
  % CT secretion inhibition vs. control: −7.5%
[1]; [11]
  % CT secretion inhibition vs. control: −1.6%
[1]; [12]
  % CT secretion inhibition vs. control: 15.6%
[1]; [13]
  % CT secretion inhibition vs. control: −76.2%
[1]; [14]
  % CT secretion inhibition vs. control: −9.3%
[1]; [15]
  % CT secretion inhibition vs. control: −43.2%
[1]; [16]
  % CT secretion inhibition vs. control: 9.5%
[1]; [17]
  % CT secretion inhibition vs. control: 7.8%
[1]; [18]
  % CT secretion inhibition vs. control: −17.4%
[1]; [19]
  % CT secretion inhibition vs. control: 7.4%
[1]; [20]
  % CT secretion inhibition vs. control: 13.6%
[1]; group A (lanreotide responders) mean
  calcitonin secretion reduced / inhibited by: 28%
[1]; group A (lanreotide responsive) mean
  calcitonin secretion, change vs. control (signed, negative = reduced): −28%
[1]; [21]
  calcitonin secretion, change vs. control (signed, negative = reduced): not reduced
[2]; [3]
  % cell viability reduction vs. control: 30.8%
[2]; [4]
  % cell viability reduction vs. control: −72.5%
[2]; [5]
  % cell viability reduction vs. control: 0.4%
[2]; [6]
  % cell viability reduction vs. control: 4.8%
[2]; [7]
  % cell viability reduction vs. control: −5.3%
[2]; [8]
  % cell viability reduction vs. control: 2.4%
[2]; [9]
  % cell viability reduction vs. control: 4.2%
[2]; [10]
  % cell viability reduction vs. control: −0.3%
[2]; [11]
  % cell viability reduction vs. control: 3.6%
[2]; [12]
  % cell viability reduction vs. control: 2.3%
[2]; [13]
  % cell viability reduction vs. control: −1.0%
[2]; [14]
  % cell viability reduction vs. control: −11.3%
[2]; [15]
  % cell viability reduction vs. control: 7.2%
[2]; [16]
  % cell viability reduction vs. control: 6.0%
[2]; [17]
  % cell viability reduction vs. control: 5.2%
[2]; [18]
  % cell viability reduction vs. control: −5.8%
[2]; [19]
  % cell viability reduction vs. control: −8.7%
[2]; [20]
  % cell viability reduction vs. control: −3.8%
[2]; [21]
  cell viability, change vs. control (signed, negative = reduced): neither affected
SSTR3
  Ki: 1 µM
